Assay results published in publication PMC11302729, “Repurposing Hsp90 inhibitors as antimicrobials targeting two-component systems identifies compounds leading to loss of bacterial membrane integrity” (Microbiology Spectrum, 2024).
≈ marks a conversion by molar mass, not a printed value. Where “and” joins values, the source holds several entries; their conditions need not be identical. Equal values may be shown once. Read-outs that look alike come from different tables or passages of the source. No end group written: not given here.

What was measured:
Format in all cases: cell-based
S. aureus str. Newman = assay: Membrane permeability using SYTOX-Green, flow cytometry; conditions: for % FITC stained bacteria 0.5 xMIC: 0.5× MIC; for % FITC stained bacteria 1 xMIC / Loss of membrane integrity: 1× MIC; for Membrane damage: if considered to cause membrane damage to S. aureus
Experimental: S. aureus str. Newman was grown to exponential phase (OD600 = 0.4) in MHB media. […] Nisin (Sigma-Aldrich) and novobiocin (Sigma-Aldrich) were used as positive and negative controls for membrane permeabilization, and stained and unstained untreated controls were also included in each assay. After exposure, samples were centrifuged at 4,000 r.p.m. for 5 min and resuspended in PBS. Bacteria were dyed by adding the fluorescent nuclear stain SYTOX Green (Molecular Probes, Invitrogen) to a final concentration of 0.5 µM and incubating for 5 min in the dark. Samples were centrifuged again and resuspended with PBS to remove unbound stain. Three hundred microliters of each sample was transferred to a clean well in a 96-well clear-bottom plate (Corning Incorporated). Fluorescence was measured in CytoFLEX flow cytometer (Beckman Coulter, Brea, CA, USA) using the green (FITC) channel with the excitation wavelength at 488 nm. Overlay histograms were created with CytExpert Software (Beckman Coulter, Brea, CA, USA).

[1] = system: Pseudomonas aeruginosa ATCC 27853; assay: MIC (microdilution) against P. aeruginosa; conditions: Pseudomonas aeruginosa
Experimental: (§1) Staphylococcus aureus str. Newman, Enterococcus faecalis vanA (strain E0155), Enterococcus faecium vanA (strain E1654), Escherichia coli ATCC 25922, Escherichia coli D21f2 with a truncated LPS barrier, Escherichia coli JW5503 (ΔtolC) ([49]), Pseudomonas aeruginosa ATCC 27853, and Pasteurella haemolytica ATCC 29701 were grown in Mueller-Hinton Broth (MHB) (Oxoid, Basingstoke, UK) and incubated at 37°C.
(§2) The minimal inhibitory concentration was determined using the microdilution method following the guidelines of the European Committee on Antimicrobial Susceptibility Testing ([50]). Briefly, a series of twofold dilutions in MHB of each compound were made in a 96-well plate, with final concentrations ranging from 50 to 0.39 µg/mL in 100 µL final volume per well. A hundred microliters of 1:100 dilution of an overnight culture of the correspondent bacteria in MHB was added to each well. Plates were incubated for 18 hours at 37°C. MIC was recorded as the lowest concentration where no growth was detected as measured by optical density at 600 nm (OD600) using Spectramax M5 (Molecular Devices LLC, San Jose, CA, USA). […] Wells containing bacteria with or without 1% DMSO and medium alone were included as controls in every plate.

[2] = system: Pasteurella haemolytica ATCC 29701; assay: MIC (microdilution) against P. haemolytica; conditions: Mannheimia haemolytica, ATCC29701, read-out: MIC P. haemolytica, Table ST1
Experimental: as §1, §2

[3] = system: Escherichia coli JW5503 (ΔtolC); assay: MIC (microdilution) against E. coli JW5503; conditions: Escherichia coli, read-out: MIC E. coli JW5503
Source text: (§3) We also tested the inhibitory activity of compounds in two different E. coli mutants: (i) E. coli JW5503 that lacks TolC efflux pumps and (ii) E. coli D21f2 that has a defective LPS inner core increasing permeability of the outer membrane. E. coli D21f2 has a slightly higher susceptibility to DPP compounds than E. coli ATCC25922.
as §1, §2

[4] = system: Enterococcus faecalis vanA (strain E0155); assay: MIC (microdilution) against E. faecalis; conditions: Enterococcus faecalis, read-out: MIC E. faecalis
Experimental: as §1, §2

[5] = system: Staphylococcus aureus str. Newman; assay: Minimal inhibitory concentration (microdilution) against S. aureus; conditions: for MIC S. aureus: Table ST3
Experimental: as §1, §2

[6] = system: Enterococcus faecium vanA (strain E1654); assay: MIC (microdilution) against E. faecium; conditions: Enterococcus faecium, read-out: MIC E. faecium
Experimental: as §1, §2

in vitro = conditions: human
Experimental: (§4) HEK293 cells and the human hepatocellular carcinoma cells (HepG2) were routinely cultured in 75-cm^2 culture flasks (Corning Incorporated) on high-glucose Dulbecco’s modified Eagle medium (DMEM) containing glutaMax and phenol red (Gibco) supplemented with 1% penicillin/streptomycin (Gibco) and 10% fetal bovine serum (FBS) (Gibco). Cells were maintained at 37°C and 5% CO2.
(§5) Cytotoxicity assays with HEK293 and HepG2 cells were performed in 96-well plates seeded with 5 × 10^4 cells/well and incubated for 24 hours to reach 80%–90% confluency. Exterior wells were filled with only medium to prevent evaporation. Culture medium was removed from the cells, and 100 µL of exposure medium [high-glucose DMEM without phenol red (Gibco)] was added to avoid a potential interaction between FBS components or antibiotics and tested compounds. A twofold dilution series of compounds in exposure medium (range 100–3.2 μg/mL) was made in a separate 96-well plate, and 100 µL of each of these dilutions was added to the assay plates for 24 hours at 37°C in the presence of 5% CO2. Control wells contained cells with DMEM, DMEM + 1% DMSO (vehicle control), or DMEM + 20% DMSO. Wells without cells were also included as negative control. After exposure, the medium was replaced with 100 µL 10% Alamar Blue (Invitrogen) in exposure medium. After 45 min incubation at 37°C and 5% CO2, fluorescence was measured on a Spectramax M5 plate reader at λex = 541 nm, λem = 590 nm. Cell viability compared with the vehicle control was calculated, and inhibition curves for each compound were fitted (non-linear curve fit, four variables, bottom constrained = 0) in Prism 9 (GraphPad Software, San Diego, USA).

HEK293 cells = assay: in vitro; conditions: LC50/MIC (HEK293 / S. aureus)
Experimental: as §4, §5

[7] = system: Escherichia coli ATCC 25922; assay: MIC (microdilution) against E. coli; conditions: Escherichia coli
Experimental: as §1, §2

[8] = system: Escherichia coli D21f2 with a truncated LPS barrier; assay: MIC (microdilution) against E. coli D21f2; conditions: read-out: MIC E coli D21f2
Source text: as §3, §1, §2

[9] = ATCC27853, Table ST1, read-out: MIC P. aeruginosa
[10] = Staphylococcus aureus, NEWMAN, Fig 2
[11] = Staphylococcus aureus, NEWMAN, Fig 2, value in parentheses
[12] = Table ST3, value in parentheses
[13] = ATCC25922, Table ST1, read-out: MIC E. coli

Compound	% FITC stained bacteria 0.5 xMIC (S. aureus str. Newman; 5 min exposure)	% FITC stained bacteria 1 xMIC (S. aureus str. Newman; 5 min exposure)	% FITC stained bacteria 2 xMIC (S. aureus str. Newman; 2× MIC, 5 min exposure)	MIC [1, 9]	MIC [2]	MIC [3]	MIC [4]	MIC [5, 10]	MIC [5, 11]	MIC S. aureus [5]	MIC [5, 12]	MIC [6]	CC50 at 24 h (in vitro)	Selectivity Index (HEK293 cells)	MIC [7, 13]	further results
CO[C@@H]1[C@@H](OC(N)=O)[C@@H](O)[C@H](Oc2ccc3c(O)c(NC(=O)c4ccc(O)c(CC=C(C)C)c4)c(=O)oc3c2C)OC1(C)C [Novobiocin, reference compound]	8.28%	12.62%	13.17%													Effect on membrane integrity (S. aureus str. Newman; 2× MIC, 5 min exposure): no effect on membrane integrity
COc1ccccc1-c1c(C(F)(F)F)n[nH]c1-c1ccc(O)cc1O [DPP-16]				> 250 µg/mL	50 µg/mL (≈ 143 µM)	3.13 µg/mL (≈ 8.94 µM)	50 µg/mL (≈ 143 µM)	25 µg/mL	71.4 µM	25 µg/mL (≈ 71.4 µM)	71.43 µM	50 µg/mL (≈ 143 µM)	16.4 µg/mL and 46.7 µM	0.65	> 250 µg/mL	
COc1ccc(-c2c(C(F)(F)F)n[nH]c2-c2ccc(OCc3ccccc3)cc2O)cc1 [DPP-15]	9.29%	13.68%	18.42%	> 250 µg/mL	> 250 µg/mL	3.12 µg/mL (≈ 7.08 µM)	1.56 µg/mL (≈ 3.54 µM)	3.12 µg/mL	7.09 µM	3.12 µg/mL (≈ 7.08 µM)	7.09 µM	1.56 µg/mL (≈ 3.54 µM)	9.64 µg/mL and 21.9 µM	3.10	> 250 µg/mL	Loss of membrane integrity (S. aureus str. Newman; 5 min exposure): did not cause significant loss of membrane integrity
Cc1n[nH]c(-c2ccc(O)cc2O)c1-c1ccc(Cl)cc1 [DPP-9]	38.22%	41.34%	43.78%	> 250 µg/mL	25 µg/mL (≈ 83.1 µM)	12.5 µg/mL (≈ 41.6 µM)	25 µg/mL (≈ 83.1 µM)	25 µg/mL	83.3 µM	25 µg/mL (≈ 83.1 µM)	83.33 µM	25 µg/mL (≈ 83.1 µM)		0.49	> 250 µg/mL	MIC [8]: 50 µg/mL (≈ 166 µM); Membrane damage (S. aureus str. Newman): YES
COc1ccc(-c2[nH]nc(C(F)(F)F)c2-c2ccccc2OC)c(O)c1 [DPP-17]					50 µg/mL (≈ 137 µM)	6.25 µg/mL (≈ 17.2 µM)		25 µg/mL	68.5 µM	25 µg/mL (≈ 68.6 µM)	68.49 µM	> 250 µg/mL	12.6 µg/mL and 34.5 µM	0.50		MIC ([1]; ATCC27853, read-out: MIC P. aeruginosa): > 250 µg/mL; MIC ([4]; 18 h): > 250 µg/mL; MIC ([7]; ATCC25922, read-out: MIC E. coli): > 250 µg/mL
COc1ccc(-c2c(C(F)(F)F)n[nH]c2-c2ccc(O)cc2O)cc1OC [DPP-18]				> 250 µg/mL	> 250 µg/mL	6.25 µg/mL (≈ 16.4 µM)	50 µg/mL (≈ 131 µM)	50 µg/mL	132 µM	50 µg/mL (≈ 131 µM)	131.58 µM	50 µg/mL (≈ 131 µM)	22.8 µg/mL and 60 µM	0.45	> 250 µg/mL	
Oc1cc(OCc2ccccc2)ccc1-c1[nH]nc(C(F)(F)F)c1-c1ccccc1 [DPP-4]	7.94%	14.15%	19.78%	> 250 µg/mL	125 µg/mL (≈ 305 µM)	6.25 µg/mL (≈ 15.2 µM)	3.12 µg/mL (≈ 7.6 µM)	1.56 µg/mL	3.8 µM	1.56 µg/mL (≈ 3.8 µM)	3.80 µM	3.12 µg/mL (≈ 7.6 µM)	7.26 µg/mL and 17.7 µM	4.65	> 250 µg/mL	MIC [8]: > 50 µg/mL; Loss of membrane integrity (S. aureus str. Newman; 5 min exposure): did not cause significant loss of membrane integrity
Oc1ccc(-c2[nH]nc(C(F)(F)F)c2-c2ccccc2)c(O)c1 [DPP-1]	30.46%	39.72%	46.63%	> 250 µg/mL	25 µg/mL (≈ 78.1 µM)	1.56 µg/mL (≈ 4.87 µM)	12.5 µg/mL (≈ 39 µM)	6.25 µg/mL	19.5 µM	6.25 µg/mL (≈ 19.5 µM)	19.53 µM	12.5 µg/mL (≈ 39 µM)		0.65	> 250 µg/mL	Membrane damage (S. aureus str. Newman): YES
COc1ccc(-c2[nH]nc(C)c2-c2ccc(Cl)cc2)c(O)c1 [DPP-10]	28.57%	37.28%	40.99%	> 250 µg/mL	62.5 µg/mL (≈ 199 µM)	6.25 µg/mL (≈ 19.9 µM)	250 µg/mL (≈ 794 µM)	25 µg/mL	79.4 µM	25 µg/mL (≈ 79.4 µM)	79.37 µM	250 µg/mL (≈ 794 µM)		0.93	> 250 µg/mL	MIC [8]: 250 µg/mL (≈ 794 µM); Membrane damage (S. aureus str. Newman): YES
Nisin: positive control for membrane permeabilization (ITSISLCTPGCKTGALMGCNMKTATCHCSIHVSK; ends and bridges not checked; also: lantibiotic nisin A: dehydrated residues and lanthionine rings not given here; UniProt P13068 24-57, looked up) [reference compound]	16.37%	53.32%	59.41%													
COc1ccc(-c2[nH]nc(C(F)(F)F)c2-c2ccc(OC)c(OC)c2)c(O)c1 [DPP-19]				> 250 µg/mL	> 250 µg/mL	12.5 µg/mL (≈ 31.7 µM)	50 µg/mL (≈ 127 µM)	25 µg/mL	63.3 µM	25 µg/mL (≈ 63.4 µM)	63.29 µM	50 µg/mL (≈ 127 µM)	13.7 µg/mL and 34.6 µM	0.55	> 250 µg/mL	
